The source of these data is patent publication US20260176266A1, “PIPERIDINOPYRIMIDINE DERIVATIVE, PREPARATION METHOD THEREFOR AND USE THEREOF IN MEDICINE” (TUOJIE BIOTECH (SHANGHAI) CO., LTD., priority 2022, published 2026).

Usually IC50 stands for the midpoint of a concentration-inhibition curve. A low value points to inhibition by little substance.

What all share (type): cell-based
The test system of experiment [1] is OVCAR3 ovarian cancer cells. As to the kind of experiment: Inhibitory activity against ovarian cancer cells (OVCAR3), CellTiter-Glo viability. To be noted: Homo sapiens, OVCAR-3, 120 h, OVCAR3, 5 days treatment. On the procedure: OVCAR3 ovarian cancer cells were cultured in a cell incubator at […] with 5% CO2 using RPMI 1640 medium with […]. On the first day, the cells were plated in a 96-well plate at a cell concentration of 2500 cells/well and cultured overnight in the incubator. On the second day, the cells were treated with compounds. The maximum compound concentration was 10 μM and was 3-fold diluted to obtain 9 concentrations, and the final concentration of DMSO was 0.1%. After the cells were cultured in the incubator for another 5 days, cell viability was tested using the Celltiter Glo assay kit (Promega), and the testing method was consistent with the operational method provided by the kit. Data were processed using GraphPad Prism 8, and IC50 was calculated.
[formula] • X: the logarithm of the compound concentration; Y: % inhibition.

Experiment [2] deals with MDA-MB-231 breast cancer cells. As to the kind of experiment: Inhibitory activity against tumor cells, CellTiter-Glo: MDA-MB-231. The following applies: Homo sapiens, 120 h, MDA-MB-231, 5 days treatment. The method, then:
(§1) MCF7 (ATCC #HTB-22) and T47D (ATCC #HTB-133) breast cancer cells and PANC-1 (ATCC #CRL-1469) pancreatic cancer cells were purchased from ATCC. MDA-MB-231 (Cobioer #CBP60382), HCC1806 (Cobioer #CBP60373), and MDA-MB-468 (Cobioer #CBP60387) breast cancer cells, HCT-116 (Cobioer #CBP60028) colorectal cancer cells, and OCI-AML-3 (Cobioer #CBP60817) and MV-4-11 (Cobioer #CBP60522) leukemia cells were purchased from Nanjing Cobioer Biosciences Co., Ltd.
(§2) OCI-AML-3 was cultured in RPMI 1640 medium with 20% FBS; HCC1806 and T47D were cultured in RPMI 1640 medium with 10% FBS; MCF7, MDA-MB-231, MDA-MB-468, and PANC-1 were cultured in DMEM medium with 10% FBS; MV-4-11 was cultured in IMDM medium with 20% FBS; HCT-116 was cultured in MC′5A medium with 10% FBS.
(§3) Palbociclib-resistant cells were constructed on MCF7 parent cells, designated MCF7 Palbo-R, and the culture conditions were consistent with those of the parent cells. All tumor cells were cultured in a cell incubator at 37° C. with 5% CO2. The cells were seeded at corresponding cell densities (600 cells/well for MDA-MB-231; 500 cells/well for MDA-MB-468, PANC-1, and HCT-116; 200 cells/well for MCF7 and HCC1806; 800 cells/well for MCF7 Palbo-R; 3000 cells/well for OCI-AML-3 and MV-4-11) in 384-well plates and cultured overnight in the incubator. On the second day, the cells were treated with compounds. The maximum compound concentration was 10 μM and was 3-fold diluted to obtain 9 concentrations, each tested in duplicate, and the final concentration of DMSO was 0.1%. The cells continued to be cultured in the incubator, with MDA-MB-231, PANC-1, MDA-MB-468, OCI-AML-3, and MV-4-11 being treated with drugs for 5 days and HCC1806, MCF7, MCF7 Palbo-R, and HCT116 being treated with drugs for 7 days. Cell viability was tested using the Celltiter Glo assay kit (Promega), and the testing method was consistent with the operational method provided by the kit. Readings were taken using an Envision multimode microplate reader. Data were processed using GraphPad Prism 8, and IC50 was calculated. […]

In experiment [3] the test system is MDA-MB-468 breast cancer cells. As to the kind of experiment: Inhibitory activity against tumor cells, CellTiter-Glo: MDA-MB-468. To be noted: Homo sapiens, 120 h, MDA-MB-468, 5 days treatment. The method, then:
as §1, §2, §3

The test system of experiment [4] is HCC1806 breast cancer cells. As to the kind of experiment: Inhibitory activity against tumor cells, CellTiter-Glo: HCC1806. To be noted: Homo sapiens, 168 h, HCC1806, 7 days treatment. The method, then: as §1, §2, §3
On the technique in general: Cellular ATP, detected with luciferase, serves as a proxy for viable cell number.

The subject of experiment [5] is T47D breast cancer cells. In words: Inhibitory activity against tumor cells, CellTiter-Glo: T47D. The following applies: Homo sapiens. On the procedure: as §1, §2
(§4) Palbociclib-resistant cells were constructed on MCF7 parent cells, designated MCF7 Palbo-R, and the culture conditions were consistent with those of the parent cells. All tumor cells were cultured in a cell incubator at 37° C. with 5% CO2. The cells were seeded at corresponding cell densities (600 cells/well for MDA-MB-231; 500 cells/well for MDA-MB-468, PANC-1, and HCT-116; 200 cells/well for MCF7 and HCC1806; 800 cells/well for MCF7 Palbo-R; 3000 cells/well for OCI-AML-3 and MV-4-11) in 384-well plates and cultured overnight in the incubator. On the second day, the cells were treated with compounds. The maximum compound concentration was 10 μM and was 3-fold diluted to obtain 9 concentrations, each tested in duplicate, and the final concentration of DMSO was 0.1%. The cells continued to be cultured in the incubator, with MDA-MB-231, PANC-1, MDA-MB-468, OCI-AML-3, and MV-4-11 being treated with drugs for 5 days and HCC1806, MCF7, MCF7 Palbo-R, and HCT116 being treated with drugs for 7 days. Cell viability was tested using the Celltiter Glo assay kit (Promega), and the testing method was consistent with the operational method provided by the kit. Readings were taken using an Envision multimode microplate reader. Data were processed using GraphPad Prism 8, and IC50 was calculated.
(§5) Y=Bottom+(Top−Bottom)/(1+10^((Log IC50−X)×HillSlope)). Calculation formula: • X: the logarithm of the compound concentration; Y: % inhibition.

The subject of experiment [6] is MCF7 Palbo-R (palbociclib-resistant cells constructed on MCF7). As to the kind of experiment: Inhibitory activity against tumor cells, CellTiter-Glo: MCF7 Palbo-R. To be noted: Homo sapiens, 168 h, 7 days treatment. On the procedure:
as §1, §2, §3

Experiment [7] relates to HCT-116 colorectal cancer cells. In words: Inhibitory activity against tumor cells, CellTiter-Glo: HCT-116. The following applies: Homo sapiens, 168 h, HCT-116, 7 days treatment. The method, then: as §1, §2, §4, §5
Experiment [8] deals with OCI-AML-3 leukemia cells. As to the kind of experiment: Inhibitory activity against tumor cells, CellTiter-Glo: OCI-AML-3. To be noted: Homo sapiens, 120 h, OCI-AML-3, 5 days treatment. The method, then:
as §1, §2, §3

Experiment [9] deals with MV-4-11 leukemia cells. As to the kind of experiment: Inhibitory activity against tumor cells, CellTiter-Glo: MV-4-11. To be noted: Homo sapiens, MV4-11, 120 h, MV-4-11, 5 days treatment. The method, then:
as §1, §2, §3

The subject of experiment [10] is MCF7 breast cancer cells. In words: Inhibitory activity against tumor cells, CellTiter-Glo: MCF7. To be noted: Homo sapiens, 168 h, MCF7, 7 days treatment. On the procedure:
as §1, §2, §3

In experiment [11] the test system is various tumor cell lines. In words: Inhibitory activity against tumor cells, summary over the panel of Tables 4 and 5. The following applies: summary of Tables 4 and 5. The method, then: as §1, §2, §4, §5
Experiment [12] concerns PANC-1 pancreatic cancer cells. In words: Inhibitory activity against tumor cells, CellTiter-Glo: PANC-1. To be noted: Homo sapiens, 120 h, PANC-1, 5 days treatment. The method, then:
as §1, §2, §3

In turn, `C[C@@H]1Cc2cnc(NCc3ccn(C)n3)nc2CN1C(=O)N[C@H](CN(C)C)c1cccc(Cl)c1` [Example 13, (R)—N—((S)-1-(3-Chlorophenyl)-2-(dimethylamino)ethyl)-6-methyl-2-(((1-methyl-TH-pyrazol-3-yl)methyl)amino)-5,8-dihydropyrido[3,4-d]pyrimidine-7(6H)-carboxamide] registered an IC50 in [1] of 21.7 nM.
Still for that read-out and setting: with `C[C@@H]1Cc2cnc(Nc3cnn(CC4CC4)c3)nc2CN1C(=O)N[C@H](CN(C)C)c1ccccc1` [Example 16, (R)-2-((1-(Cyclopropylmethyl)-1H-pyrazol-4-yl)amino)-N—((S)-2-(dimethylamino)-1-phenylethyl)-6-methyl-5,8-dihydropyrido[3,4-d]pyrimidine-7(6H)-carboxamide] the figure was 9.99 nM; with `CC1Cc2cnc(NC3CCOCC3)nc2CN1C(=O)N[C@H](CN(C)C)c1ccccc1` (stereo partly drawn) [Example 10, N—((S)-2-(Dimethylamino)-1-phenylethyl)-6-methyl-2-((tetrahydro-2H-pyran-4-yl)amino)-5,8-dihydropyrido[3,4-d]pyrimidine-7(6H)-carboxamide], 42.6 nM; with `C[C@H](Nc1ncc2c(n1)CN(C(=O)N[C@H](CN(C)C)c1ccccc1)[C@H](C)C2)c1ccccc1` [Example 9, (R)—N—((S)-2-(Dimethylamino)-1-phenylethyl)-6-methyl-2-(((S)-1-phenylethyl)amino)-5,8-dihydropyrido[3,4-d]pyrimidine-7(6H)-carboxamide], 13.8 nM.
As to `[2H]C([2H])([2H])n1ccc(CNc2ncc3c(n2)CN(C(=O)N[C@H](CN(C)C)c2ccccc2)[C@H](C)C3)n1` [Example 14, (R)—N—((S)-2-(Dimethylamino)-1-phenylethyl)-6-methyl-2-(((1-(methyl-d3)-1H-pyrazol-3-yl)methyl)amino)-5,8-dihydropyrido[3,4-d]pyrimidine-7(6H)-carboxamide], in experiment [1], half-maximal inhibition (IC50) required 40.5 nM.
Still for that read-out and setting: as for `Cc1cc(Nc2ncc3c(n2)CN(C(=O)N[C@H](CN(C)C)c2ccccc2)[C@H](C)C3)ccn1` [Example 15, (R)—N—((S)-2-(Dimethylamino)-1-phenylethyl)-6-methyl-2-((2-methylpyridin-4-yl)amino)-5,8-dihydropyrido[3,4-d]pyrimidine-7(6H)-carboxamide], the figure is 26.7 nM.
On to `C[C@@H]1Cc2cnc(Nc3cnn(C)c3)nc2CN1C(=O)N[C@H](CN(C)C)c1ccccc1` [Example 17, (R)—N—((S)-2-(Dimethylamino)-1-phenylethyl)-6-methyl-2-((1-methyl-1H-pyrazol-4-yl)amino)-5,8-dihydropyrido[3,4-d]pyrimidine-7(6H)-carboxamide], for which it took 22.5 nM to reach half-maximal inhibition in experiment [1] (IC50).
On the same count and under the same terms, as for `C[C@@H]1Cc2cnc(NC3Cc4ccccc4C3)nc2CN1C(=O)N[C@H](CN(C)C)c1ccccc1` [Example 7, (R)-2-((2,3-Dihydro-1H-inden-2-yl)amino)-N—((S)-2-(dimethylamino)-1-phenylethyl)-6-methyl-5,8-dihydropyrido[3,4-d]pyrimidine-7(6H)-carboxamide], the figure is 6.44 nM.
In the case of `[2H]C([2H])([2H])N(C[C@@H](NC(=O)N1Cc2nc(NCc3ccn(C)n3)ncc2C[C@H]1C)c1ccccc1)C([2H])([2H])[2H]` [Example 12, (R)—N—((S)-2-(Bis(methyl-d3)amino)-1-phenylethyl)-6-methyl-2-(((1-methyl-1H-pyrazol-3-yl)methyl)amino)-5,8-dihydropyrido[3,4-d]pyrimidine-7(6H)-carboxamide], the IC50 in experiment [2] was determined as 25.8 nM; in experiment [3] it was 32.4 nM; in experiment [4], 28.5 nM; in experiment [5] it was 41.5 nM; in experiment [6], 43.3 nM; in experiment [7], 66 nM. In addition, the 50% inhibitory concentration (IC50) came to 47.1 nM in experiment [8]; 27.3 nM in experiment [9]; 33.9 nM in [1]; 21.7 nM in experiment [10]; 50.3 nM in experiment [12]. In [11], the “inhibitory activity against the various tumor cell lines (in words)” value is listed as “high inhibitory activity”.
`C[C@@H]1Cc2cnc(N[C@H](C)c3ccccc3)nc2CN1C(=O)N[C@H](CN(C)C)c1ccccc1` [Example 5, (R)—N—((S)-2-(Dimethylamino)-1-phenylethyl)-6-methyl-2-(((R)-1-phenylethyl)amino)-5,8-dihydropyrido[3,4-d]pyrimidine-7(6H)-carboxamide]: the IC50 in experiment [1] came out at 81.2 nM.
In experiment [1], `C#Cc1cccc([C@@H]2CN(C)CC[C@H]2C(=O)N2Cc3nc(NCc4ccn(C)n4)ncc3C[C@H]2C)c1` [Compound 1-2, ((3R,4R)-3-(3-Ethynylphenyl)-1-methylpiperidin-4-yl)((R)-6-methyl-2-(((1-methyl-1H-pyrazol-3-yl)methyl)amino)-5,8-dihydropyrido[3,4-d]pyrimidin-7(6H)-yl)methanone] registered an IC50 of 11.5 nM.
With `[2H]C([2H])([2H])N(C[C@@H](NC(=O)N1Cc2nc(N[C@@H](C)c3ccccn3)ncc2C[C@H]1C)c1ccccc1)C([2H])([2H])[2H]` [Example 19, (R)—N—((S)-2-(Bis(methyl-d3)amino)-1-phenylethyl)-6-methyl-2-(((S)-1-(pyridin-2-yl)ethyl)amino)-5,8-dihydropyrido[3,4-d]pyrimidine-7(6H)-carboxamide], the values for the IC50 in experiment [5], in [7] and in experiment [1] were 14.1 nM, 29.2 nM and 26.1 nM, respectively. In experiment [11], the “inhibitory activity against the various tumor cell lines (in words)” value is recorded as “high inhibitory activity”.
On to `CCN(C)C[C@@H](NC(=O)N1Cc2nc(NCc3ccn(C)n3)ncc2C[C@H]1C)c1ccccc1` [Example 8, (R)—N—((S)-2-(Ethyl(methyl)amino)-1-phenylethyl)-6-methyl-2-(((1-methyl-1H-pyrazol-3-yl)methyl)amino)-5,8-dihydropyrido[3,4-d]pyrimidine-7(6H)-carboxamide], for which, in experiment [1], the IC50 turned out to be 58.3 nM.
